Assay results reported in patent US11066414B2, “Cot modulators and methods of use thereof” (Gilead Sciences, Inc., priority 2015, dated 2021).
Where two headings read alike, the source gives them in different places.

Columns and labels:
TNFα = experiment: Cot Monocyte TNFα Cell Based Assay
Human Cot = Human Cot (Homo sapiens (Human), UniProt P41279); experiment: High Throughput Cot Biochemical Assay
[1] = Homo sapiens, Monocyte, read-out: EC50 TNF, LPS-stimulated human monocytes, TNFα TR-FRET
[2] = IC50 HTRF, Cot HTRF (TR-FRET KinEASE) biochemical assay, 400 μM ATP
[3] = Homo sapiens, Monocyte, read-out: EC50 TNF, LPS-stimulated human monocytes, TNFα
[4] = IC50 HTRF, Cot HTRF (TR-FRET) biochemical assay
[5] = read-out: EC50 TNF, LPS-stimulated human monocytes, TNFα
[6] = read-out: IC50 HTRF, Cot HTRF (TR-FRET) biochemical assay

Sequence of Human Cot (P41279 30-397): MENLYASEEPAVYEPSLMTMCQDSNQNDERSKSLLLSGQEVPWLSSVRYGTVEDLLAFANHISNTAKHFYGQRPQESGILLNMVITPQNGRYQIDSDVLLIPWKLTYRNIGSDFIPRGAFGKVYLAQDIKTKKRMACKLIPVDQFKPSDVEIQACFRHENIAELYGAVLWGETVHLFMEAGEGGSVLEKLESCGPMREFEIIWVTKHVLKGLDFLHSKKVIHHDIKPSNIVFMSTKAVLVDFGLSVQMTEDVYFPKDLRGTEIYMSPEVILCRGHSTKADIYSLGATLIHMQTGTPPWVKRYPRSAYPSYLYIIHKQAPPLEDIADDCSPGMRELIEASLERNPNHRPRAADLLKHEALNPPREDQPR

EC50 (TNFα; [3])	IC50 (Human Cot; [4])	SMILES	also measured
		Cn1ccc2c([C@H](Nc3cc(C#N)c4ncc(C#N)c(NCC(C)(C)C)c4c3)c3cn(C4(C(F)F)CC4)nn3)cccc21 [Example 847, (S)-6-(((1-(1-(difluoromethyl)-cyclopropyl)-1H-1,2,3-triazol-4-yl)(1-methyl-1H-indol-4-yl)methyl)amino)-4-(neopentylamino)quinoline-3,8-dicarbonitrile]	EC50 (TNFα; [1]): 296 nM; IC50 (Human Cot; [2]): 31 nM
173 nM	2 nM	CCN1CCC(n2cc([C@@H](Nc3cc(Cl)c4ncc(C#N)c(Nc5ccc(F)c(Cl)c5)c4c3)c3cscc3Cl)nn2)CC1 [Example 371, (S)-8-chloro-4-((3-chloro-4-fluorophenyl)amino)-6-(((4-chlorothiophen-3-yl)(1-(1-ethylpiperidin-4-yl)-1H-1,2,3-triazol-4-yl)methyl)-amino)quinoline-3-carbonitrile]	
		CC[C@@H](Nc1c(C#N)cnc2c(Cl)cc(N[C@@H](c3cccnc3)c3cn(C4CCN(C(C)(C)C)CC4)nn3)cc12)c1ccccc1 [Example 258]	EC50 (TNFα; [5]): 33 nM; IC50 (Human Cot; [6]): 2 nM
50 nM	3 nM	Cn1cnc2cccc([C@H](Nc3cc(Cl)c4ncc(C#N)c(NCC(C)(C)C)c4c3)c3cn(C4CC4)nn3)c21 [Example 459, (S)-8-chloro-6-(((1-cyclopropyl-1H-1,2,3-triazol-4-yl)(1-methyl-1H-benzo[d]imidazol-7-yl)methyl)amino)-4-(neopentylamino)quinoline-3-carbonitrile]	
926 nM	28 nM	CC(C)(C)CNc1c(C#N)cnc2c(Cl)cc(N[C@H](c3cn(C4CC4)nn3)c3cncc4cnccc34)cc12 [Example 466, (S)-8-chloro-6-(((1-cyclopropyl-1H-1,2,3-triazol-4-yl)(2,7-naphthyridin-4-yl)methyl)amino)-4-(neopentylamino)-quinoline-3-carbonitrile]	
52 nM	5 nM	Cn1ccc2c([C@H](Nc3cc(Cl)c4ncc(C#N)c(NCC(C)(C)C(F)(F)F)c4c3)c3cn(C4(C(F)(F)F)CC4)nn3)cccc2c1=O [Example 780, (S)-8-chloro-6-(((2-methyl-1-oxo-1,2-dihydroisoquinolin-5-yl)(1-(1-(trifluoromethyl)-cyclopropyl)-1H-1,2,3-triazol-4-yl)methyl)amino)-4-((3,3,3-trifluoro-2,2-dimethylpropyl)amino)-quinoline-3-carbonitrile]	
2520 nM	6 nM	N#Cc1cnc2c(Cl)cc(N[C@H](c3c[nH]nn3)c3cccc4c3CNC4)cc2c1Nc1ccc(F)c(Cl)c1 [Example 56, (S)-8-chloro-4-((3-chloro-4-fluorophenyl)amino)-6-((isoindolin-4-yl(1H-1,2,3-triazol-4-yl)methyl)amino)quinoline-3-carbonitrile]	
		Cn1nccc1[C@H](Nc1cc(C#N)c2ncc(C#N)c(NCC(C)(C)C)c2c1)c1cn(C2(C(F)F)CC2)nn1 [Example 677, (S)-6-(((1-(l-(difluoromethyl)-cyclopropyl)-1H-1,2,3-triazol-4-yl)(1-methyl-1H-pyrazol-5-yl)methyl)amino)-4-(neopentylamino)quinoline-3,8-dicarbonitrile]	EC50 (TNFα; [5]): 133 nM; IC50 (Human Cot; [6]): 4 nM
6420 nM	44 nM	Cc1ncccc1[C@H](Nc1cc(Cl)c2ncc(C#N)c(Nc3ccc(Cl)c(Cl)c3F)c2c1)c1c[nH]nn1 [Example 227, (S)-8-chloro-4-((3,4-dichloro-2-fluorophenyl)amino)-6-(((2-methylpyridin-3-yl)(1H-1,2,3-triazol-4-yl)methyl)amino)-quinoline-3-carbonitrile]	
298 nM	8 nM	CCc1nc(F)ccc1[C@H](Nc1cc(Cl)c2ncc(C#N)c(NCC(C)(C)C)c2c1)c1cn(C2(C(F)(F)F)CC2)nn1 [Example 593, (S)-8-chloro-6-(((2-ethyl-6-fluoropyridin-3-yl)(1-(1-(trifluoromethyl)cyclopropyl)-1H-1,2,3-triazol-4-yl)methyl)amino)-4-(neopentylamino)quinoline-3-carbonitrile]	
70 nM	3 nM	Cc1nc(F)ccc1[C@H](Nc1cc(Cl)c2ncc(C#N)c(NCC(C)(C)C)c2c1)c1cn(C(C)(C)CF)nn1 [Example 531, (S)-8-chloro-6-(((1-(1-fluoro-2-methyl-propan-2-yl)-1H-1,2,3-triazol-4-yl)(6-fluoro-2-methylpyridin-3-yl)methyl)amino)-4-(neopentylamino)quinoline-3-carbonitrile]	
739 nM	18 nM	CC(C)(C)N1CCC(n2cc([C@@H](Nc3cc(Cl)c4ncc(C#N)c(Nc5ccc(F)c(Cl)c5)c4c3)c3cnco3)nn2)CC1 [Example 299, (R)-6-(((1-(1-(tert-butyl)piperidin-4-yl)-1H-1,2,3-triazol-4-yl)(oxazol-5-yl)methyl)amino)-8-chloro-4-((3-chloro-4-fluorophenyl)amino)quinoline-3-carbonitrile]	
		Cc1nc(F)ccc1[C@H](Nc1cc(C#N)c2ncc(C#N)c(NCC(C)(C)C)c2c1)c1nnn([C@@H](C)CF)c1F [Example 854, 6-(((S)-(5-fluoro-1-((S)-1-fluoropropan-2-yl)-1H-1,2,3-triazol-4-yl)(6-fluoro-2-methylpyridin-3-yl)methyl)amino)-4-(neopentylamino)quinoline-3,8-dicarbonitrile]	EC50 (TNFα; [1]): 17 nM; IC50 (Human Cot; [2]): 4 nM
45 nM	2 nM	Cc1nc(F)ccc1[C@H](Nc1cc(C#N)c2ncc(C#N)c(NCC(C)(C)C)c2c1)c1cn(C2(CF)CC2)nn1 [Example 503, (S)-6-(((6-fluoro-2-methylpyridin-3-yl)(1-(1-(fluoromethyl)cyclopropyl)-1H-1,2,3-triazol-4-yl)methyl)amino)-4-(neopentylamino)quinoline-3,8-dicarbonitrile]	
		CC(C)(C)CNc1c(C#N)cnc2c(C#N)cc(N[C@H](c3cn(C4(C(F)(F)F)CC4)nn3)c3cccc4c(=O)n(C(F)F)ccc34)cc12 [Example 889, (S)-6-(((2-(difluoromethyl)-1-oxo-1,2-dihydroisoquinolin-5-yl)(1-(1-(trifluoromethyl)cyclopropyl)-1H-1,2,3-triazol-4-yl)methyl)amino)-4-(neopentylamino)quinoline-3,8-dicarbonitrile]	EC50 (TNFα; [1]): 104 nM; IC50 (Human Cot; [2]): 9 nM
108 nM	4 nM	Cc1nc(F)ccc1[C@H](Nc1cc(Cl)c2ncc(C#N)c(NCC(C)(C)C)c2c1)c1cn(C(C)(C)C(F)F)nn1 [Example 545, (S)-8-chloro-6-(((1-(1,1-difluoro-2-methylpropan-2-yl)-1H-1,2,3-triazol-4-yl)(6-fluoro-2-methylpyridin-3-yl)methyl)-amino)-4-(neopentylamino)quinoline-3-carbonitrile]	
1800 nM	5 nM	[2H][C@](Nc1cc(Cl)c2ncc(C#N)c(Nc3cnc(F)c(F)c3)c2c1)(c1cccnc1)c1c[nH]nn1 [Example 164, (S)-8-chloro-4-((5,6-difluoropyridin-3-yl)amino)-6-((pyridin-3-yl(1H-1,2,3-triazol-4-yl)methyl-d)amino)quinoline-3-carbonitrile]	
		Cc1ccc2c([C@H](Nc3cc(C#N)c4ncc(C#N)c(NCC(C)(C)C)c4c3)c3cn(C45CC(C4)C5)nn3)cccc2n1 [Example 900, (S)-6-(((1-(bicyclo[1.1.1]pentan-1-yl)-1H-1,2,3-triazol-4-yl)(2-methylquinolin-5-yl)methyl)amino)-4-(neopentylamino)quinoline-3,8-dicarbonitrile]	EC50 (TNFα; [1]): 30 nM; IC50 (Human Cot; [2]): 3 nM
2690 nM	56 nM	CC(C)(C)CNc1c(C#N)cnc2c(S(C)(=O)=O)cc(N[C@H](c3cn(C4(C(F)(F)F)CC4)nn3)c3cccc4ncsc34)cc12 [Example 442, (S)-6-((benzo[d]thiazol-7-yl(1-(1-(trifluoromethyl)cyclopropyl)-1H-1,2,3-triazol-4-yl)methyl)amino)-8-(methyl-sulfonyl)-4-(neopentylamino)quinoline-3-carbonitrile]	
		CC(C)(C)CNc1c(C#N)cnc2c(C#N)cc(N[C@H](c3cn(C(CF)CF)nn3)c3cccc4ncccc34)cc12 [Example 893, (S)-6-(((1-(1,3-difluoropropan-2-yl)-1H-1H-1,2,3-triazol-4-yl)(quinolin-5-yl)methyl)amino)-4-(neopentyl-amino)quinoline-3,8-dicarbonitrile]	EC50 (TNFα; read-out: EC50 TNF, LPS-stimulated human monocytes, TNFα TR-FRET): 99 nM; IC50 (Human Cot; read-out: IC50 HTRF, Cot HTRF (TR-FRET KinEASE) biochemical assay, 400 μM ATP): 4 nM
558 nM	7 nM	N#Cc1cnc2c(Cl)cc(N[C@@H](c3cccnc3)c3cn(CCCN4CCCC4)nn3)cc2c1Nc1cnc(F)c(F)c1 [Example 200, (S)-8-chloro-4-((5,6-difluoropyridin-3-yl)amino)-6-((pyridin-3-yl(1-(3-(pyrrolidin-1-yl)propyl)-1H-1,2,3-triazol-4-yl)methyl)amino)quinoline-3-carbonitrile]	
407 nM	19 nM	CC(C)(C)CNc1c(C#N)cnc2c(Cl)cc(N[C@H](c3cn(C4CC4)nn3)c3cccc4scnc34)cc12 [Example 449, (S)-6-((benzo[d]thiazol-4-yl(1-cyclopropyl-1H-1,2,3-triazol-4-yl)methyl)amino)-8-chloro-4-(neopentylamino)quinoline-3-carbonitrile]	
928 nM	16 nM	Cc1ncsc1[C@H](Nc1cc(Cl)c2ncc(C#N)c(N[C@H](C)c3ccccc3)c2c1)c1cn(C(C)C)nn1 [Example 239, 8-chloro-6-(((R)-(1-isopropyl-1H-1,2,3-triazol-4-yl)(4-methylthiazol-5-yl)methyl)amino)-4-(((R)-1-phenylethyl)amino)quinoline-3-carbonitrile]	
